{"source": "paper PMC6441007", "about": "“Semi-solid prodrug nanoparticles for long-acting delivery of water-soluble antiretroviral drugs within combination HIV therapies” (Nature Communications, 2019)", "key": {"[1]": {"assay": "Initial rate of prodrug hydrolysis in human liver S9 (HPLC)", "format": "in vitro ADME", "conditions": "for Hydrolysis liver: IVIVE model input, determined experimentally", "experimental": "(§1) As expected, rapid enzyme-catalysed hydrolysis of the 5’-carbonate group of 1–8 was observed, evident from the short plasma half-lives (<12 h) and relatively rapid initial hydrolysis rates in liver S9 and muscle S9 fractions (evaluated over a timeframe in which the carbamate masking group remains intact). […] Although chemically similar to capecitabine at the carbamate moiety, the plasma half-lives of longer-chain carbamates 12–16 were generally shorter. Initial hydrolysis rates in liver and muscle S9 fractions were within a sixfold range of capecitabine as measured in our hands, with the longer C5 to C8 analogues (13–16) undergoing hydrolysis most efficiently in liver S9 (Supplementary Figure 21). […] In all cases, the hydrolysis of the carbonate moiety of 1–8 was considerably faster in liver than muscle.\n(§2) Reaction mixtures containing mixed gender human skeletal muscle S9 (10.47 mg mL^−1, Bioreclamation) or phosphate buffer (0.1 M, pH 7.4) and pooled, mixed gender liver S9 (2.0 mg mL^−1, Xenotech) were pre-incubated at 37 °C for 5 min. Reactions were initiated by the addition of prodrugs 1–8 (1 mM + 5% DMSO). After incubation at 37 °C, aliquots were taken at time points measuring initial rate (Muscle S9: 1–3: 0.5, 10, 20, 30, 40, 50, and 60 min; 4: 0.5, 20, 40, 60, 80, 100, and 120 min; 5–6: 0.5, 30, 60, 90, 150, and 180 min; 7–8: 0.5 min, 30 min, 1 h, 3 h, 4 h, 5 h) (Liver S9: 1–2: 0.5, 1, 2, 3, 4, and 5 min; 3–6: 0.5, 2, 4, 6, 8, and 10 min; 7–8: 0.5, 5, 10, 15, 20, 25, 30, and 60 min). These aliquots were quenched in two volumes of ice-cold methanol. The quenched aliquots were then centrifuged at 16,873 × g for 5 min. The supernatant was diluted 10-fold into phosphate buffer (0.1 M, pH 7.4) and analysed by HPLC method described within Supplementary Information (monitoring starting material depletion at 305 nm). […]"}, "[2]": {"assay": "Initial rate of prodrug hydrolysis in human skeletal muscle S9 (HPLC)", "format": "in vitro ADME", "conditions": "for Hydrolysis muscle: IVIVE model input, determined experimentally", "experimental": "as §1, §2"}, "[3]": {"assay": "Prodrug hydrolysis in undiluted human plasma (HPLC, half-life)", "format": "in vitro ADME", "conditions": "1 mM, 37 °C", "experimental": "as §1\nReaction mixtures containing pooled mixed gender human plasma (Bioreclamation) were pre-incubated at 37 °C for 5 min. Reactions were initiated by the addition of prodrugs 1–8 (1 mM + 5% DMSO). […] The supernatant was diluted 10-fold into phosphate buffer (0.1 M, pH 7.4) and analysed by HPLC method described within Supplementary Information (monitoring starting material depletion at 305 nm). […]\n323 buffer (0.1 M, pH 7.4) and analyzed by the HPLC method described above monitoring […]"}, "[4]": {"test_system": "human immunodeficiency virus type 1 reverse transcriptase", "conditions": "intracellular FTC-TP; cited from earlier work"}, "[5]": {"conditions": "cited from earlier work"}, "[6]": {"conditions": "25 °C; cited from earlier work"}, "[7]": {"conditions": "IVIVE model input parameter (Supplementary Table 4); source not given; cited from earlier work"}, "[8]": {"test_system": "viral replication", "conditions": "plasma concentration; cited from earlier work"}, "[9]": {"conditions": "oral 400mg FTC, human clinical data, mean (minimum-maximum)"}, "[10]": {"conditions": "oral FTC at steady state, average of 3 independent clinical studies, mean (± SD), ref Supplementary References 3-5"}}, "note": "Read-outs that look alike come from different tables or passages of the source."}
{"smiles": "CCCCCOC(=O)Nc1nc(=O)n([C@@H]2CS[C@H](COC(=O)OCCCCC)O2)cc1F", "note": "[prodrug 5, Pentyl (5-fluoro-2-oxo-1-((2R,5S)-2-((((pentyloxy)carbonyl)oxy)methyl)-1,3-oxathiolan-5-yl)-1,2-dihydropyrimidin-4-yl)carbamate]", "values": [{"measurement": "melting point", "value": "103 to 106", "unit": "°C"}]}
{"smiles": "CCCCCCOC(=O)Nc1nc(=O)n([C@@H]2CS[C@H](CO)O2)cc1F", "note": "[prodrug 14, Hexyl (5-fluoro-1-((2R,5S)-2-(hydroxymethyl)-1,3-oxathiolan-5-yl)-2-oxo-1,2-dihydropyrimidin-4-yl)carbamate]", "values": [{"measurement": "melting point", "value": "46 to 49", "unit": "°C"}]}
{"smiles": "CCCCCCCCOC(=O)Nc1nc(=O)n([C@@H]2CS[C@H](CO)O2)cc1F", "note": "[prodrug 16, Octyl (5-fluoro-1-((2R,5S)-2-(hydroxymethyl)-1,3-oxathiolan-5-yl)-2-oxo-1,2-dihydropyrimidin-4-yl)carbamate]", "values": [{"measurement": "Hydrolysis liver", "setting": "[1]", "value": 0.0282, "unit": "h⁻¹"}, {"measurement": "Hydrolysis muscle", "setting": "[2]", "value": 0.004, "unit": "h⁻¹"}]}
{"smiles": "CCCCOC(=O)Nc1nc(=O)n([C@@H]2CS[C@H](COC(=O)OCCCC)O2)cc1F", "note": "[prodrug 4, Butyl (1-((2R,5S)-2-(((butoxycarbonyl)oxy)methyl)-1,3-oxathiolan-5-yl)-5-fluoro-2-oxo-1,2-dihydropyrimidin-4-yl)carbamate]", "values": [{"measurement": "Hydrolysis liver", "setting": "[1]", "value": 0.5786, "unit": "h⁻¹"}, {"measurement": "Hydrolysis muscle", "setting": "[2]", "value": 0.0290, "unit": "h⁻¹"}]}
{"smiles": "CCOC(=O)Nc1nc(=O)n([C@@H]2CS[C@H](COC(=O)OCC)O2)cc1F", "note": "[prodrug 2, Ethyl (1-((2R,5S)-2-(((ethoxycarbonyl)oxy)methyl)-1,3-oxathiolan-5-yl)-5-fluoro-2-oxo-1,2-dihydropyrimidin-4-yl)carbamate]", "values": [{"measurement": "plasma half-life (hydrolysis of 5'-carbonate moiety)", "setting": "[3]", "value": "shortest"}]}
{"smiles": "COC(=O)Nc1nc(=O)n([C@@H]2CS[C@H](CO)O2)cc1F", "note": "[prodrug 9, Methyl (5-fluoro-1-((2R,5S)-2-(hydroxymethyl)-1,3-oxathiolan-5-yl)-2-oxo-1,2-dihydropyrimidin-4-yl)carbamate]", "values": [{"measurement": "melting point", "value": "85 to 89", "unit": "°C"}]}
{"smiles": "CCCCCCCCOC(=O)Nc1nc(=O)n([C@@H]2CS[C@H](COC(=O)OCCCCCCCC)O2)cc1F", "note": "[prodrug 8, Octyl (5-fluoro-1-((2R,5S)-2-((((octyloxy)carbonyl)oxy)methyl)-1,3-oxathiolan-5-yl)-2-oxo-1,2-dihydropyrimidin-4-yl)carbamate]", "values": [{"measurement": "Hydrolysis liver", "setting": "[1]", "value": 0.0694, "unit": "h⁻¹"}, {"measurement": "Hydrolysis muscle", "setting": "[2]", "value": 0.0067, "unit": "h⁻¹"}]}
{"smiles": "CCCOC(=O)Nc1nc(=O)n([C@@H]2CS[C@H](COC(=O)OCCC)O2)cc1F", "note": "[prodrug 3, Propyl (5-fluoro-2-oxo-1-((2R,5S)-2-(((propoxycarbonyl)oxy)methyl)-1,3-oxathiolan-5-yl)-1,2-dihydropyrimidin-4-yl)carbamate]", "values": [{"measurement": "plasma half-life (hydrolysis of 5'-carbonate moiety)", "setting": "[3]", "value": "shortest"}, {"measurement": "melting point", "value": "102 to 107", "unit": "°C"}, {"measurement": "5'-carbonate hydrolysis rate in liver S9", "setting": "[1]; 1 mM, 37 °C, across series 1-8", "value": "maximum"}, {"measurement": "5'-carbonate hydrolysis rate in muscle S9", "setting": "[2]; 1 mM, 37 °C, across series 1-8", "value": "maximum"}]}
{"smiles": "Nc1nc(=O)n([C@@H]2CS[C@H](COP(=O)(O)OP(=O)(O)OP(=O)(O)O)O2)cc1F", "note": "[FTC-TP, FTC triphosphate]", "values": [{"measurement": "intracellular half-maximal inhibitory concentration (IC50)", "setting": "[4]", "value": 150, "unit": "fmol per 10^6 cells"}]}
{"smiles": "CCCCCCCOC(=O)Nc1nc(=O)n([C@@H]2CS[C@H](CO)O2)cc1F", "note": "[prodrug 15, Heptyl (5-fluoro-1-((2R,5S)-2-(hydroxymethyl)-1,3-oxathiolan-5-yl)-2-oxo-1,2-dihydropyrimidin-4-yl)carbamate]", "values": [{"measurement": "melting point", "value": 46, "unit": "°C"}]}
{"smiles": "Nc1nc(=O)n([C@@H]2CS[C@H](CO)O2)cc1F", "note": "[FTC, emtricitabine]", "values": [{"measurement": "AUC, observed", "setting": "[5]; [9]", "value": "16484 (11524-21388) ng/h/mL"}, {"measurement": "Cmax, observed", "setting": "[5]; [9]", "value": "2968 (1582-4165) ng/mL"}, {"measurement": "Cmin, observed", "setting": "[5]; [9]", "value": "63 (48-134) ng/mL"}, {"measurement": "AUC, observed", "setting": "[5]; [10]", "value": "9100 (± 1646) ng/h/mL"}, {"measurement": "Cmax, observed", "setting": "[5]; [10]", "value": "1773 (± 46.1) ng/mL"}, {"measurement": "Cmin, observed", "setting": "[5]; [10]", "value": "67 (± 25) ng/mL"}, {"measurement": "water solubility", "setting": "[6]", "value": 112, "unit": "mg/mL"}, {"measurement": "Plasma Cl", "setting": "[7]", "value": 19.35, "unit": "L/h"}, {"measurement": "concentration inhibiting 90% of viral replication (IC90)", "setting": "[8]", "value": 0.05, "unit": "mg/L"}]}
{"smiles": "COC(=O)Nc1nc(=O)n([C@@H]2CS[C@H](COC(=O)OC)O2)cc1F", "note": "[prodrug 1, Methyl (5-fluoro-1-((2R,5S)-2-(((methoxycarbonyl)oxy)methyl)-1,3-oxathiolan-5-yl)-2-oxo-1,2-dihydropyrimidin-4-yl)carbamate]", "values": [{"measurement": "melting point", "value": "97 to 103", "unit": "°C"}]}
{"smiles": "CCCCCCOC(=O)Nc1nc(=O)n([C@@H]2CS[C@H](COC(=O)OCCCCCC)O2)cc1F", "note": "[prodrug 6, Hexyl (5-fluoro-1-((2R,5S)-2-((((hexyloxy)carbonyl)oxy)methyl)-1,3-oxathiolan-5-yl)-2-oxo-1,2-dihydropyrimidin-4-yl)carbamate]", "values": [{"measurement": "melting point", "value": 110, "unit": "°C"}]}
{"smiles": "CCCOC(=O)Nc1nc(=O)n([C@@H]2CS[C@H](CO)O2)cc1F", "note": "[prodrug 11, Propyl (5-fluoro-1-((2R,5S)-2-(hydroxymethyl)-1,3-oxathiolan-5-yl)-2-oxo-1,2-dihydropyrimidin-4-yl)carbamate]", "values": [{"measurement": "melting point", "value": "82 to 86", "unit": "°C"}]}
{"smiles": "CCCCCOC(=O)Nc1nc(=O)n([C@@H]2CS[C@H](CO)O2)cc1F", "note": "[prodrug 13, Pentyl (5-fluoro-1-((2R,5S)-2-(hydroxymethyl)-1,3-oxathiolan-5-yl)-2-oxo-1,2-dihydropyrimidin-4-yl)carbamate]", "values": [{"measurement": "melting point", "value": "44 to 47", "unit": "°C"}]}
{"smiles": "CCCCOC(=O)Nc1nc(=O)n([C@@H]2CS[C@H](CO)O2)cc1F", "note": "[prodrug 12, Butyl (5-fluoro-1-((2R,5S)-2-(hydroxymethyl)-1,3-oxathiolan-5-yl)-2-oxo-1,2-dihydropyrimidin-4-yl)carbamate]", "values": [{"measurement": "melting point", "value": 47, "unit": "°C"}, {"measurement": "Hydrolysis liver", "setting": "[1]", "value": 0.0125, "unit": "h⁻¹"}, {"measurement": "Hydrolysis muscle", "setting": "[2]", "value": 0.001, "unit": "h⁻¹"}]}
